From patent US4256836A, “Addition compound of dipeptide derivative and amino acid derivative” (Toyo Soda Manufacturing Co. Ltd., priority 1977, dated 1981)
Where a SMILES comes first, the peptide text is derived from it. The star is where a group is joined. Cbz = O=C(OCc1ccccc1)*

What was measured:
[1] = solubility in water or acidic aqueous solution; type: physicochemical; settings: at 25° C.
[2] = relative to sugar; cited from earlier work

Row | solubility in water [1] [g/100 g water] | SMILES | solubility in diluted hydrochloric acid ([1]; diluted hydrochloric acid (10^-2 M)) | sweetness [2]
1 | 0.028 | COC(=O)[C@H](Cc1ccccc1)NC(=O)[C@H](CC(=O)O)NC(=O)OCc1ccccc1 (Cbz-Asp-Phe-OMe) | 0.017 g/100 g diluted hydrochloric acid (10^-2 M) | 
2 |  | COC(=O)[C@H](Cc1ccccc1)NC(=O)[C@@H](N)CC(=O)O [α-L-Aspartyl-L-phenylalanine methyl ester] (H-Asp-Phe-OMe) |  | about 200 times of that of sugar
